# Test results published in PubChem BioAssay (NCI).
#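 48-hour exposure; five concentrations; linearly interpolated endpoints. GI50: concentration for 50% inhibition of growth. The concentration for full growth arrest is given as TGI.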
# Legend:
# Test in all cases: inhibition of tumour cell growth, NCI panel, 48 h
# 786-0 renal = test system: 786-0 renal
# CCRF-CEM leukemia = test system: CCRF-CEM leukemia
# SK-OV-3 ovarian = test system: SK-OV-3 ovarian
# NCI-H23 lung = test system: NCI-H23 lung
# UACC-62 melanoma = test system: UACC-62 melanoma
# K-562 leukemia = test system: K-562 leukemia
# EKVX NSCLC = test system: EKVX NSCLC
# NCI-H522 lung = test system: NCI-H522 lung
# TK-10 renal = test system: TK-10 renal
# SF-295 CNS = test system: SF-295 CNS
# HOP-92 NSCLC = test system: HOP-92 NSCLC
# NCI-H460 lung = test system: NCI-H460 lung
# MALME-3M melanoma = test system: MALME-3M melanoma
# RPMI-8226 leukemia = test system: RPMI-8226 leukemia
# SF-268 CNS = test system: SF-268 CNS
# SF-539 CNS = test system: SF-539 CNS
# PC-3 prostate = test system: PC-3 prostate
# COLO 205 colon = test system: COLO 205 colon
# DU-145 prostate = test system: DU-145 prostate
# HCT-116 colon = test system: HCT-116 colon
# LOX IMVI melanoma = test system: LOX IMVI melanoma
# BT-549 breast = test system: BT-549 breast
# UO-31 renal = test system: UO-31 renal
# SNB-19 CNS = test system: SNB-19 CNS
# HOP-62 NSCLC = test system: HOP-62 NSCLC
# HL-60(TB) leukemia = test system: HL-60(TB) leukemia
# HCC-2998 colon = test system: HCC-2998 colon
# KM12 colon = test system: KM12 colon
# A549 NSCLC = test system: A549 NSCLC
# HS 578T breast = test system: HS 578T breast
# A498 renal = test system: A498 renal
# ACHN renal = test system: ACHN renal
# OVCAR-4 ovarian = test system: OVCAR-4 ovarian
# MDA-MB-435 = test system: MDA-MB-435
# SW-620 colon = test system: SW-620 colon
# SK-MEL-28 melanoma = test system: SK-MEL-28 melanoma
# OVCAR-8 ovarian = test system: OVCAR-8 ovarian
# HCT-15 colon = test system: HCT-15 colon
# SK-MEL-5 melanoma = test system: SK-MEL-5 melanoma
# MCF7 breast = test system: MCF7 breast
# SN12C renal = test system: SN12C renal
# M14 melanoma = test system: M14 melanoma
# OVCAR-5 ovarian = test system: OVCAR-5 ovarian
# U251 CNS = test system: U251 CNS
# NCI-H226 lung = test system: NCI-H226 lung
# MOLT-4 leukemia = test system: MOLT-4 leukemia
# UACC-257 melanoma = test system: UACC-257 melanoma
# T-47D breast = test system: T-47D breast
# IGROV1 ovarian = test system: IGROV1 ovarian
# RXF 393 renal = test system: RXF 393 renal
# CAKI-1 renal = test system: CAKI-1 renal
# NCI/ADR-RES ovarian = test system: NCI/ADR-RES ovarian
# HT29 colon = test system: HT29 colon
# MDA-MB-231 breast = test system: MDA-MB-231 breast
# SR leukemia = test system: SR leukemia
# OVCAR-3 ovarian = test system: OVCAR-3 ovarian
smiles,measurement,setting,value
COc1ccc(Cn2cc3c(c2-c2cc(OC)c(OC)c(OC)c2)CCc2cnoc2-3)cc1N,GI50,786-0 renal,59.9 nM
same,TGI,786-0 renal,> 23200 nM
same,GI50,CCRF-CEM leukemia,38.4 nM
same,GI50,SK-OV-3 ovarian,44.7 nM
same,TGI,SK-OV-3 ovarian,> 100000 nM
same,GI50,NCI-H23 lung,50.7 nM
same,TGI,NCI-H23 lung,> 100000 nM
same,GI50,UACC-62 melanoma,44.7 nM
same,TGI,UACC-62 melanoma,> 86900 nM
same,GI50,K-562 leukemia,35.1 nM
same,TGI,K-562 leukemia,> 100000 nM
same,GI50,EKVX NSCLC,235 nM
same,TGI,EKVX NSCLC,> 100000 nM
same,GI50,NCI-H522 lung,18 nM
same,TGI,NCI-H522 lung,58 nM
same,GI50,TK-10 renal,68.9 nM
same,TGI,TK-10 renal,> 100000 nM
same,GI50,SF-295 CNS,36.9 nM
same,TGI,SF-295 CNS,> 100000 nM
same,GI50,HOP-92 NSCLC,4580 nM
same,TGI,HOP-92 NSCLC,> 100000 nM
same,GI50,NCI-H460 lung,37.7 nM
same,TGI,NCI-H460 lung,5220 nM
same,GI50,MALME-3M melanoma,38.2 nM
same,TGI,MALME-3M melanoma,> 100000 nM
same,GI50,RPMI-8226 leukemia,48.9 nM
same,GI50,SF-268 CNS,79.2 nM
same,TGI,SF-268 CNS,> 100000 nM
same,GI50,SF-539 CNS,34.4 nM
same,TGI,SF-539 CNS,> 100000 nM
same,GI50,PC-3 prostate,75.1 nM
same,TGI,PC-3 prostate,> 100000 nM
same,GI50,COLO 205 colon,251 nM
same,TGI,COLO 205 colon,789 nM
same,GI50,DU-145 prostate,34.3 nM
same,TGI,DU-145 prostate,355 nM
same,GI50,HCT-116 colon,45 nM
same,TGI,HCT-116 colon,2840 nM
same,GI50,LOX IMVI melanoma,64.1 nM
same,TGI,LOX IMVI melanoma,> 100000 nM
same,GI50,BT-549 breast,173 nM
same,TGI,BT-549 breast,> 100000 nM
same,GI50,UO-31 renal,228 nM
same,TGI,UO-31 renal,> 50900 nM
same,GI50,SNB-19 CNS,62.1 nM
same,TGI,SNB-19 CNS,> 100000 nM
same,GI50,HOP-62 NSCLC,52.1 nM
same,TGI,HOP-62 NSCLC,> 100000 nM
same,GI50,HL-60(TB) leukemia,26.8 nM
same,TGI,HL-60(TB) leukemia,184 nM
same,GI50,HCC-2998 colon,88.2 nM
same,TGI,HCC-2998 colon,> 42000 nM
same,GI50,KM12 colon,40.1 nM
same,TGI,KM12 colon,1940 nM
same,GI50,A549 NSCLC,82.1 nM
same,TGI,A549 NSCLC,> 100000 nM
same,GI50,HS 578T breast,34.3 nM
same,TGI,HS 578T breast,> 100000 nM
same,GI50,A498 renal,23.9 nM
same,TGI,A498 renal,524 nM
same,GI50,ACHN renal,73.1 nM
same,TGI,ACHN renal,> 100000 nM
same,GI50,OVCAR-4 ovarian,103 nM
same,TGI,OVCAR-4 ovarian,> 100000 nM
same,GI50,MDA-MB-435,14.1 nM
same,TGI,MDA-MB-435,38.4 nM
same,GI50,SW-620 colon,38 nM
same,TGI,SW-620 colon,> 100000 nM
same,GI50,SK-MEL-28 melanoma,79.7 nM
same,TGI,SK-MEL-28 melanoma,> 100000 nM
same,GI50,OVCAR-8 ovarian,70.2 nM
same,TGI,OVCAR-8 ovarian,> 100000 nM
same,GI50,HCT-15 colon,45.4 nM
same,TGI,HCT-15 colon,> 100000 nM
same,GI50,SK-MEL-5 melanoma,32.5 nM
same,TGI,SK-MEL-5 melanoma,1240 nM
same,GI50,MCF7 breast,36 nM
same,TGI,MCF7 breast,> 40000 nM
same,GI50,SN12C renal,79.5 nM
same,TGI,SN12C renal,> 100000 nM
same,GI50,M14 melanoma,50.7 nM
same,TGI,M14 melanoma,> 100000 nM
same,GI50,OVCAR-5 ovarian,324 nM
same,TGI,OVCAR-5 ovarian,> 100000 nM
same,GI50,U251 CNS,52.3 nM
same,TGI,U251 CNS,> 100000 nM
same,GI50,NCI-H226 lung,537 nM
same,TGI,NCI-H226 lung,> 100000 nM
same,GI50,MOLT-4 leukemia,64.8 nM
same,TGI,MOLT-4 leukemia,> 45900 nM
same,GI50,UACC-257 melanoma,> 23100 nM
same,TGI,UACC-257 melanoma,> 100000 nM
same,GI50,T-47D breast,34 nM
same,TGI,T-47D breast,> 100000 nM
same,GI50,IGROV1 ovarian,81.8 nM
same,TGI,IGROV1 ovarian,> 72600 nM
same,GI50,RXF 393 renal,31.9 nM
same,TGI,RXF 393 renal,> 100000 nM
same,GI50,CAKI-1 renal,31.9 nM
same,TGI,CAKI-1 renal,> 100000 nM
same,GI50,NCI/ADR-RES ovarian,35.7 nM
same,TGI,NCI/ADR-RES ovarian,> 100000 nM
same,GI50,HT29 colon,307 nM
same,TGI,HT29 colon,1710 nM
same,GI50,MDA-MB-231 breast,158 nM
same,TGI,MDA-MB-231 breast,> 100000 nM
same,GI50,SR leukemia,32 nM
same,TGI,SR leukemia,1390 nM
same,GI50,OVCAR-3 ovarian,26 nM
same,TGI,OVCAR-3 ovarian,63.1 nM
